Data as given in ChEMBL document CHEMBL1159169, “Nuclear variations of quinuclidine substance P antagonists: 2-diphenylmethyl-1-azabicyclo[3.2.2]nonan-3-amines” (Bioorg Med Chem Lett, 1993).

Biological target: Substance-P receptor (Homo sapiens, UniProt P25103)
Test: Compound was evaluated for the inhibition of binding of [3H]SP in human IM-9 cells
Type: cell-based

Substance-P receptor, sequence (P25103 whole entry): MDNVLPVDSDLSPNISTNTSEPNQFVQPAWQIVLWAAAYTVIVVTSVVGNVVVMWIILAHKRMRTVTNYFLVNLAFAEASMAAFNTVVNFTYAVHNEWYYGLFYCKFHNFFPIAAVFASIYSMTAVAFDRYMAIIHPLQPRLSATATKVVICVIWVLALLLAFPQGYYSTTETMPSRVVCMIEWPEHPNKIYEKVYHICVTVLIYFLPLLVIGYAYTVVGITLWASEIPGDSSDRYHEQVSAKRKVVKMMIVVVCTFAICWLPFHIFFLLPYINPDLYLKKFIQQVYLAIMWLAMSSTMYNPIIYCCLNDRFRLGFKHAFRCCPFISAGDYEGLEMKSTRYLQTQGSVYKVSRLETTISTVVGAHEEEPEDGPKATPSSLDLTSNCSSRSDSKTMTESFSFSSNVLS

Structure (SMILES)	IC50 [nM]
Clc1ccccc1CN[C@H]1C2CCCN(CC2)[C@H]1C(c1ccccc1)c1ccccc1 (some centres undefined)	560
COc1ccccc1CN[C@H]1C2CCCN(CC2)[C@H]1C(c1ccc(F)cc1)c1ccc(F)cc1 (some centres undefined)	310
COc1ccccc1CN[C@H]1C2CCCN(CC2)[C@H]1C(c1ccccc1)c1ccccc1 (some centres undefined)	34.3
COc1ccc(CN[C@H]2C3CCCN(CC3)[C@H]2C(c2ccccc2)c2ccccc2)c(OC)c1 (some centres undefined)	86.3
